Data taken from patent publication US9593149B2, “Amylin and calcitonin receptor agonist” (Novo Nordisk A/S, priority 2014, dated 2017).
Values after ≈ are worked out from the molar mass of the structure shown. Numbered stars: 1 amine (or outer) side, 2 acyl side, 3 side chain; on linkers, the order of the positions; unused ones are H or OH. Peptide text beside a SMILES is read from it. * marks the point of attachment. C20 diacid = O=C(O)CCCCCCCCCCCCCCCCCCC(=O)*; C18 diacid = O=C(O)CCCCCCCCCCCCCCCCC(=O)*; γGlu = O=C(O)[C@H](CCC(=O)[*:2])N[*:1]; AEEA = NCCOCCOCC(=O)O

Assay: Assay (IV) determination of solubility
Format: physicochemical
Description: Assay (IV)—Determination of Solubility
The mimylin peptide was dissolved in water at ˜500 nmol/ml and mixed 1:1 with a series of buffers (100 mM glycylglycine pH 3.0, 100 mM glycylglycine pH 4.0, 100 mM glycylglycine pH 5.0, 100 mM bistrispropane pH 6.0, 100 mM bistrispropane pH 6.5, 100 mM bistrispropane pH 7.0, 100 mM bistrispropane pH 7.5, 100 mM bistrispropane pH 8.0).

Row | Structure (SMILES) | Solubility (pH 3.0) | Solubility (pH 4.0) | Solubility (pH 5.0) | Solubility (pH 6.0) | Solubility (pH 6.5) | Solubility (pH 7.0) | Solubility (pH 7.5) | Solubility (pH 8.0) | solubility at 18 h (pH 5.0)
1 | CC(C)C[C@H](NC(=O)[C@H](C)NC(=O)[C@H](C)NC(=O)[C@@H](NC(=O)[C@H](CO)NC(=O)[C@H](Cc1cnc[nH]1)NC(=O)[C@H](CCC(=O)O)NC(=O)[C@H](CO)NC(=O)[C@H](C)NC(=O)[C@H](CCC(=O)O)NC(=O)CCCCCCCCCCCCCCCCC(=O)O)[C@@H](C)O)C(=O)NCC(=O)N[C@@H](CCCNC(=N)N)C(=O)N[C@@H](CC(C)C)C(=O)N[C@@H](CO)C(=O)N[C@@H](C)C(=O)N[C@@H](CCC(=O)O)C(=O)N[C@@H](CC(C)C)C(=O)N[C@@H](Cc1cnc[nH]1)C(=O)N[C@@H](CCC(=O)O)C(=O)N[C@@H](CC(C)C)C(=O)N[C@@H](C)C(=O)N[C@H](C(=O)N[C@@H](CC(C)C)C(=O)N1CCC[C@H]1C(=O)N[C@@H](CCCNC(=N)N)C(=O)N[C@H](C(=O)N[C@@H](CCC(=O)O)C(=O)N[C@H](C(=O)NCC(=O)N1CCC[C@H]1C(=O)N[C@@H](CCC(=O)O)C(=O)N[C@@H](CO)C(=O)N1CCC[C@H]1C(N)=O)[C@@H](C)O)[C@@H](C)O)[C@@H](C)O [compound 17, [N-terminal(C18 diacid), 5H]mimylin] ({C18 diacid}-EASEHSTAALGRLSAELHELATLPRTETGPESP-NH2) | ≧200 μM | ≧200 μM | ≧200 μM | ≧200 μM | ≧200 μM | ≧200 μM | ≧200 μM | ≧200 μM | 
2 | CC(C)C[C@H](NC(=O)[C@H](CCC(=O)O)NC(=O)[C@H](Cc1cnc[nH]1)NC(=O)[C@H](CC(C)C)NC(=O)[C@H](CCC(=O)O)NC(=O)[C@H](C)NC(=O)[C@H](CO)NC(=O)[C@H](CC(C)C)NC(=O)[C@H](CCCNC(=N)N)NC(=O)CNC(=O)[C@H](CC(C)C)NC(=O)[C@@H](NC(=O)[C@H](C)NC(=O)[C@@H](NC(=O)[C@@H](NC(=O)[C@H](CC(C)C)NC(=O)[C@H](CCC(=O)O)NC(=O)[C@H](CO)NC(=O)[C@H](C)NC(=O)CC[C@H](NC(=O)CCCCCCCCCCCCCCCCC(=O)O)C(=O)O)[C@@H](C)O)[C@@H](C)O)C(C)C)C(=O)N[C@@H](C)C(=O)N[C@H](C(=O)N[C@@H](CC(C)C)C(=O)N1CCC[C@H]1C(=O)N[C@@H](CCCNC(=N)N)C(=O)N[C@H](C(=O)N[C@@H](CCC(=O)O)C(=O)N[C@H](C(=O)NCC(=O)N[C@H](C(=O)NCC(=O)N[C@H](C(=O)N1CCC[C@H]1C(N)=O)[C@@H](C)O)[C@@H](C)O)[C@@H](C)O)[C@@H](C)O)[C@@H](C)O [compound 95, [N-terminal(C18 diacid-gGlu), des1, 6T, 9V, 30T, 31G, 32T]mimylin] ({C18 diacid-γGlu}-ASELTTAVLGRLSAELHELATLPRTETGTGTP-NH2) | ≧200 μM | ≧200 μM | ≧200 μM | ≧200 μM | ≧200 μM | ≧200 μM | ≧200 μM | ≧200 μM | 
3 | CC(C)C[C@H](NC(=O)[C@H](C)NC(=O)[C@H](C)NC(=O)[C@@H](NC(=O)[C@H](CO)NC(=O)[C@H](CC(C)C)NC(=O)[C@H](CCC(=O)O)NC(=O)[C@H](CO)NC(=O)[C@H](C)NC(=O)CC[C@H](NC(=O)CCCCCCCCCCCCCCCCC(=O)O)C(=O)O)[C@@H](C)O)C(=O)NCC(=O)N[C@@H](CCCNC(=N)N)C(=O)N[C@@H](CC(C)C)C(=O)N[C@@H](CO)C(=O)N[C@@H](C)C(=O)N[C@@H](CCC(=O)O)C(=O)N[C@@H](CC(C)C)C(=O)N[C@@H](Cc1cnc[nH]1)C(=O)N[C@@H](CCC(=O)O)C(=O)N[C@@H](CC(C)C)C(=O)N[C@@H](C)C(=O)N[C@H](C(=O)N[C@@H](CC(C)C)C(=O)N1CCC[C@H]1C(=O)N[C@@H](CCCNC(=N)N)C(=O)N[C@H](C(=O)N[C@@H](CCC(=O)O)C(=O)N[C@H](C(=O)NCC(=O)N[C@@H](CO)C(=O)N[C@@H](CCC(=O)O)C(=O)N[C@@H](CO)C(=O)N1CCC[C@H]1C(N)=O)[C@@H](C)O)[C@@H](C)O)[C@@H](C)O [compound 23, [N-terminal(C18 diacid-gGlu), des1, 30S]mimylin] ({C18 diacid-γGlu}-ASELSTAALGRLSAELHELATLPRTETGSESP-NH2) | ≧200 μM | ≧200 μM | ≧200 μM | ≧200 μM | ≧200 μM | ≧200 μM | ≧200 μM | ≧200 μM | 
4 | CC(C)C[C@H](NC(=O)CNC(=O)[C@H](CO)NC(=O)[C@H](C)NC(=O)CC[C@H](NC(=O)CCCCCCCCCCCCCCCCCCC(=O)O)C(=O)O)C(=O)N[C@@H](CO)C(=O)N[C@H](C(=O)N[C@@H](C)C(=O)N[C@@H](C)C(=O)N[C@@H](CC(C)C)C(=O)NCC(=O)N[C@@H](CCCNC(=N)N)C(=O)N[C@@H](CC(C)C)C(=O)N[C@@H](CO)C(=O)N[C@@H](CCC(N)=O)C(=O)N[C@@H](CCC(=O)O)C(=O)N[C@@H](CC(C)C)C(=O)N[C@@H](Cc1cnc[nH]1)C(=O)N[C@@H](CCC(=O)O)C(=O)N[C@@H](CC(C)C)C(=O)N[C@@H](CCC(N)=O)C(=O)N[C@H](C(=O)N[C@@H](Cc1ccc(O)cc1)C(=O)N1CCC[C@H]1C(=O)N[C@@H](Cc1cnc[nH]1)C(=O)N[C@H](C(=O)N[C@@H](CCC(=O)O)C(=O)N[C@H](C(=O)NCC(=O)N[C@@H](CO)C(=O)NCC(=O)N[C@H](C(=O)N[C@@H](Cc1ccc(O)cc1)C(N)=O)[C@@H](C)O)[C@@H](C)O)[C@@H](C)O)[C@@H](C)O)[C@@H](C)O [compound 117, [N-terminal(C20 diacid-gGlu), des1, 4G, 15Q, 21Q, 23Y, 25H, 30S, 31G, 32T, 33Y]mimylin] ({C20 diacid-γGlu}-ASGLSTAALGRLSQELHELQTYPHTETGSGTY-NH2) | ≧200 μM | ≧200 μM |  | ≧200 μM | ≧200 μM | ≧200 μM | ≧200 μM | ≧200 μM | 38 µM (≈ 146 µg/mL)
5 | CC(C)C[C@H](NC(=O)[C@H](C)NC(=O)[C@H](C)NC(=O)[C@@H](NC(=O)[C@H](CO)NC(=O)[C@H](CC(C)C)NC(=O)[C@H](CCC(=O)O)NC(=O)[C@H](CO)NC(=O)[C@H](C)NC(=O)CC[C@H](NC(=O)CCCCCCCCCCCCCCCCC(=O)O)C(=O)O)[C@@H](C)O)C(=O)NCC(=O)N[C@@H](CCCNC(=N)N)C(=O)N[C@@H](CC(C)C)C(=O)N[C@@H](CO)C(=O)N[C@@H](C)C(=O)N[C@@H](CCC(=O)O)C(=O)N[C@@H](CC(C)C)C(=O)N[C@@H](Cc1cnc[nH]1)C(=O)N[C@@H](CCC(=O)O)C(=O)N[C@@H](CC(C)C)C(=O)N[C@@H](C)C(=O)N[C@H](C(=O)N[C@@H](CC(C)C)C(=O)N1CCC[C@H]1C(=O)N[C@@H](CCCNC(=N)N)C(=O)N[C@H](C(=O)N[C@@H](CCC(=O)O)C(=O)N[C@H](C(=O)NCC(=O)N[C@@H](CO)C(=O)NCC(=O)N1CCC[C@H]1C(=O)N1CCC[C@H]1C(N)=O)[C@@H](C)O)[C@@H](C)O)[C@@H](C)O [compound 75, [N-terminal(C18 diacid-gGlu), des1, 30S, 31G, 32P]mimylin] ({C18 diacid-γGlu}-ASELSTAALGRLSAELHELATLPRTETGSGPP-NH2) | ≧200 μM | ≧200 μM | ≧200 μM | ≧200 μM | ≧200 μM | ≧200 μM | ≧200 μM | ≧200 μM | 
6 | CC(C)C[C@H](NC(=O)[C@H](C)NC(=O)[C@H](C)NC(=O)[C@@H](NC(=O)[C@H](CO)NC(=O)[C@H](CC(C)C)NC(=O)[C@H](CCC(=O)O)NC(=O)[C@H](CO)NC(=O)[C@H](C)NC(=O)COCCOCCNC(=O)COCCOCCNC(=O)COCCOCCNC(=O)COCCOCCNC(=O)CC[C@H](NC(=O)CCCCCCCCCCCCCCCCCCC(=O)O)C(=O)O)[C@@H](C)O)C(=O)NCC(=O)N[C@@H](CCCNC(=N)N)C(=O)N[C@@H](CC(C)C)C(=O)N[C@@H](CO)C(=O)N[C@@H](C)C(=O)N[C@@H](CCC(=O)O)C(=O)N[C@@H](CC(C)C)C(=O)N[C@@H](Cc1cnc[nH]1)C(=O)N[C@@H](CCC(=O)O)C(=O)N[C@@H](CC(C)C)C(=O)N[C@@H](C)C(=O)N[C@H](C(=O)N[C@@H](CC(C)C)C(=O)N1CCC[C@H]1C(=O)N[C@@H](CCCNC(=N)N)C(=O)N[C@H](C(=O)N[C@@H](CCC(=O)O)C(=O)N[C@H](C(=O)NCC(=O)N[C@@H](CO)C(=O)NCC(=O)N[C@@H](CO)C(=O)N1CCC[C@H]1C(N)=O)[C@@H](C)O)[C@@H](C)O)[C@@H](C)O [compound 44, [N-terminal(C20 diacid-gGlu-4xOEG), des1, 30S, 31G]mimylin] ({C20 diacid-γGlu-AEEA-AEEA-AEEA-AEEA}-ASELSTAALGRLSAELHELATLPRTETGSGSP-NH2) | ≧200 μM | ≧200 μM | ≧200 μM | ≧200 μM | ≧200 μM | ≧200 μM | ≧200 μM | ≧200 μM | 
